Source: patent US20130005747A1, “METHOD FOR SELECTING A CANCER THERAPY” (Cyclacel Limited, priority 2010, published 2013)

Key:
Assay in all cases: Fractional growth, 72 h seliciclib
Type in all cases: cell-based, human
ABC-1 = ABC-1 (Lung: NSCLC), 15 μM seliciclib
Description: (§1) A total of 270 human cancer cell lines from diverse cancer histopathologic types were investigated.

A673 = A673 (Muscle), 15 μM seliciclib
Description: as §1

NH-6 = NH-6 (Kidney), 15 μM seliciclib
Description: as §1

NCI-H841 = NCI-H841 (Lung), 15 μM seliciclib
Description: as §1

XPA-4 = XPA-4 (Pancreas), 15 μM seliciclib
Description: as §1

KYSE-140 = KYSE-140 (Esophagus), 15 μM seliciclib
Description: as §1

Hs 633T = Hs 633T (Miscellaneous), 15 μM seliciclib
Description: as §1

PCI-4B = PCI-4B (Head & Neck), 15 μM seliciclib
Description: as §1

SCCH-196 = SCCH-196 (Miscellaneous), 15 μM seliciclib
Description: as §1

MG-63 = MG-63 (Bone), 15 μM seliciclib
Description: as §1

NCI-H2085 = NCI-H2085 (Lung: NSCLC), 15 μM seliciclib
Description: as §1

SW 900 = SW 900 (Lung: NSCLC), 15 μM seliciclib
Description: as §1

NCI-H1975 = NCI-H1975 (Lung: NSCLC), 15 μM seliciclib
Description: as §1

UM-UC-3 = UM-UC-3 (Bladder), 15 μM seliciclib
Description: as §1

MGH-MC-1 = MGH-MC-1 (Skin), 15 μM seliciclib
Description: as §1

JHH-2 = JHH-2 (Liver), 15 μM seliciclib
Description: as §1

DK-MG = DK-MG (Brain), 15 μM seliciclib
Description: as §1

JHU-028 = JHU-028 (Head & Neck), 15 μM seliciclib
Description: as §1

SW 13 = SW 13 (Kidney), 15 μM seliciclib
Description: as §1

HT 1376 = HT 1376 (Bladder), 15 μM seliciclib
Description: as §1

SW 156 = SW 156 (Kidney), 15 μM seliciclib
Description: as §1

OVCAR-5 = OVCAR-5 (Ovary), 15 μM seliciclib
Description: as §1

TOV-112D = TOV-112D (Ovary), 15 μM seliciclib
Description: as §1

HO-1-u-1 = HO-1-u-1 (Head & Neck), 15 μM seliciclib
Description: as §1

B-CPAP = B-CPAP (Thyroid), 15 μM seliciclib
Description: as §1

HUP-T3 = HUP-T3 (Pancreas), 15 μM seliciclib
Description: as §1

KP-3L = KP-3L (Pancreas), 15 μM seliciclib
Description: as §1

SiHa = SiHa (Cervix), 15 μM seliciclib
Description: as §1

Daoy = Daoy (Brain), 15 μM seliciclib
Description: as §1

LCLC-103H = LCLC-103H (Lung: NSCLC), 15 μM seliciclib
Description: as §1

NCI-H2228 = NCI-H2228 (Lung: NSCLC), 15 μM seliciclib
Description: as §1

A2058 = A2058 (Skin), 15 μM seliciclib
Description: as §1

KU-19-19 = KU-19-19 (Bladder), 15 μM seliciclib
Description: as §1

GP5d = GP5d (Intestine), 15 μM seliciclib
Description: as §1

GCT = GCT (Miscellaneous), 15 μM seliciclib
Description: as §1

KP-1N = KP-1N (Pancreas), 15 μM seliciclib
Description: as §1

C-33 A = C-33 A (Cervix), 15 μM seliciclib
Description: as §1

CC[C@H](CO)Nc1nc(NCc2ccccc2)c2ncn(C(C)C)c2n1 [seliciclib, roscovitine]
Fractional Growth (ABC-1): 0.6543
Fractional Growth (A673): 0.4111
Fractional Growth (NH-6): 0.5218
Fractional Growth (NCI-H841): 0.7639
Fractional Growth (XPA-4): 0.3444
Fractional Growth (KYSE-140): 0.6278
Fractional Growth (Hs 633T): 0.41
Fractional Growth (PCI-4B): 0.4686
Fractional Growth (SCCH-196): 0.6177
Fractional Growth (MG-63): 0.5484
Fractional Growth (NCI-H2085): 0.4597
Fractional Growth (SW 900): 0.5842
Fractional Growth (NCI-H1975): 0.4117
Fractional Growth (UM-UC-3): 0.3538
Fractional Growth (MGH-MC-1): 0.4543
Fractional Growth (JHH-2): 0.635
Fractional Growth (DK-MG): 0.8572
Fractional Growth (JHU-028): 0.5325
Fractional Growth (SW 13): 0.5624
Fractional Growth (HT 1376): 0.6897
Fractional Growth (SW 156): 0.467
Fractional Growth (OVCAR-5): 0.4053
Fractional Growth (TOV-112D): 0.3156
Fractional Growth (HO-1-u-1): 0.4858
Fractional Growth (B-CPAP): 0.5754
Fractional Growth (HUP-T3): 0.4333
Fractional Growth (KP-3L): 0.4338
Fractional Growth (SiHa): 0.4302
Fractional Growth (Daoy): 0.6209
Fractional Growth (LCLC-103H): 0.5051
Fractional Growth (NCI-H2228): 0.6493
Fractional Growth (A2058): 0.6341
Fractional Growth (KU-19-19): 0.3033
Fractional Growth (GP5d): 0.7382
Fractional Growth (GCT): 0.4799
Fractional Growth (KP-1N): 0.6045
Fractional Growth (C-33 A): 0.5677
